Laboratory results: publication PMC12445474, “Conservation of heat stress acclimation by the IPK2-type kinases that control the synthesis of the inositol pyrophosphate 4/6-InsP7 in land plants” (PLOS Genetics, 2025)

Tests used:
AtIPK2α = target: T1, AtIPK2α (Arabidopsis thaliana, UniProt Q9LY23); assay: isothermal titration calorimetry; type: binding
T1 construct: gene IPK2a; full-length CDS in pET28b, N-terminal His8-MBP-TEV, E. coli BL21 (RIL); tag removed by TEV for ITC, His8-MBP fusion for kinase assays
T1 sequence (Q9LY23 1-286): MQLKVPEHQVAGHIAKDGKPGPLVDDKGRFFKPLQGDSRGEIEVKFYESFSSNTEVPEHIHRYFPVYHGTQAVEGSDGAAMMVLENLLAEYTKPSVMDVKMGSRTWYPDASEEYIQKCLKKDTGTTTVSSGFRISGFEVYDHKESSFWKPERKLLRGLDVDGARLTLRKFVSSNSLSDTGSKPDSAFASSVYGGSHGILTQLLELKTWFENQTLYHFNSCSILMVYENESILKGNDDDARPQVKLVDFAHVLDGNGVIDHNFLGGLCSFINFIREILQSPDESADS

MpIPMK [1] = target: T2, MpIPMK (Marchantia polymorpha, UniProt A0A2R6WAL0); assay: in vitro kinase assay, PAGE and CE-MS of products; type: biochemical; conditions: 12.5 mM ATP, 10 nmol InsP6, 5 mM MgCl2, 20 mM HEPES pH 7.5, 1 mM DTT, 37 °C, 12 h
T2 construct: gene MARPO_0118s0021; full-length CDS in pET28b, N-terminal His8-MBP fusion, E. coli, Ni-NTA purified in PBS; tag kept

AtIPK2β [2] = target: T3, AtIPK2β (Arabidopsis thaliana, UniProt Q9FLT2); assay: isothermal titration calorimetry; type: binding
T3 construct: gene IPK2b; full-length CDS in pET28b, N-terminal His8-MBP-TEV, E. coli BL21 (RIL); tag removed by TEV for ITC, His8-MBP fusion for kinase assays
T3 sequence (Q9FLT2 1-300): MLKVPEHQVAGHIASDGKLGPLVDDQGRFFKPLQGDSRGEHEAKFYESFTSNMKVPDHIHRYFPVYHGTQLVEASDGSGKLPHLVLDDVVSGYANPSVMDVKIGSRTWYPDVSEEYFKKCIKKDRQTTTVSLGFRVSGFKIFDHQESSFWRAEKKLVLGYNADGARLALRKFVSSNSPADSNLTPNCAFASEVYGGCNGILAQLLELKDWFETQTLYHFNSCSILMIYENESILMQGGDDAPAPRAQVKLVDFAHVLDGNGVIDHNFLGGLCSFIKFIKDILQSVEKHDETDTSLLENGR

AtHSFA1b [3] = target: T4, AtHSFA1b (Arabidopsis thaliana, UniProt O81821 1-481); assay: EMSA; 25-200 nM protein, 250 nM probe; EMSA: 250 nM FAM probe, 15 min on ice (30 min pre-incubation with partner or InsP), 6% native PAGE; binding buffer not stated (proteins purified in PBS pH 7.4); conditions: protein: recombinant; tags: N-terminal His8-MBP; chain copies: 3; label: 5' FAM on strand 1; 5' overhang 4 nt at both ends, 26 bp duplex
T4 sequence (O81821 whole entry): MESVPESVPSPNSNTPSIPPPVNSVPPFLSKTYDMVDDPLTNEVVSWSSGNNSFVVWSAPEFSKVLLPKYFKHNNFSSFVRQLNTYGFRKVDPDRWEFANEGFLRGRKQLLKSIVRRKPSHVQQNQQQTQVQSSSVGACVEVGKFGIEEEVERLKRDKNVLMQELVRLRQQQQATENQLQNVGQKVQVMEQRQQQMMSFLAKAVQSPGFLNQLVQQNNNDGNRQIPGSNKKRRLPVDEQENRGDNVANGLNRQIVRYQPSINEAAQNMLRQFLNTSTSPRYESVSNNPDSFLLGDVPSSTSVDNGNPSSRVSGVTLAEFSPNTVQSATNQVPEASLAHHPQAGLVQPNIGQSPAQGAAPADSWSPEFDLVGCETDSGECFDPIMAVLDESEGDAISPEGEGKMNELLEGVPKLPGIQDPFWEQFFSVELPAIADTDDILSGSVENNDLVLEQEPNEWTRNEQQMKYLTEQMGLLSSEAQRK

MpIPMK [4] = target: T5, MpIPMK (Marchantia polymorpha (Tak-1), UniProt A0A2R6WAL0 1-319); assay: EMSA; 50-200 nM protein, 250 nM probe; EMSA: 250 nM FAM probe, 15 min on ice (30 min pre-incubation with partner or InsP), 6% native PAGE; binding buffer not stated (proteins purified in PBS pH 7.4); conditions: protein: recombinant; tags: N-terminal His8-MBP; label: 5' FAM on strand 1; 5' overhang 4 nt at both ends, 26 bp duplex
T5 sequence: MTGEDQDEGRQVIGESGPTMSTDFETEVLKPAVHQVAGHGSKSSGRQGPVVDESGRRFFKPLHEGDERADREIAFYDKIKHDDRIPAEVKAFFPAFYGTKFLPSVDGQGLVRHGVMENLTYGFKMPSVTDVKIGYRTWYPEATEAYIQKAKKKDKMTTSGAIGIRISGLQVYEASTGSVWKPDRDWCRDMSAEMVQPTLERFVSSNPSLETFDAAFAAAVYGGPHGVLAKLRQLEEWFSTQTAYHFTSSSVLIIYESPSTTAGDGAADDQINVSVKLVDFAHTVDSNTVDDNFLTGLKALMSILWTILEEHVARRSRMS

AtIPK2β [5] = target: T6, AtIPK2β (Arabidopsis thaliana (Col-0), UniProt Q9FLT2 1-300); assay: as above; conditions: protein: recombinant; tags: N-terminal His8-MBP-TEV; label: 5' FAM on strand 1; 5' overhang 4 nt at both ends, 26 bp duplex
T6 sequence: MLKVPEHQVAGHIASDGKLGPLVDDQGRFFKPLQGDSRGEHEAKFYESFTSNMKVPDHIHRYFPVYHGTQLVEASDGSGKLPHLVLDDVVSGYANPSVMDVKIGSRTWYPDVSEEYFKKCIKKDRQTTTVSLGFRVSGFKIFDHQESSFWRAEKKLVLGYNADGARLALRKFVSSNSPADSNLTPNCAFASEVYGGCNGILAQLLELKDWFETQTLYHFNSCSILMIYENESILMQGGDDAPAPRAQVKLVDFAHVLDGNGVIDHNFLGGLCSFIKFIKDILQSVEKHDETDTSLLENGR

AtHSFA1b [6] = target: T4, AtHSFA1b; assay: as above; conditions: protein: recombinant; tags: N-terminal His8-MBP; chain copies: 3; label: 5' FAM on strand 1; 5' overhang 4 nt at both ends, 18 bp duplex

For `O=P(O)(O)O[C@H]1[C@H](OP(=O)(O)O)[C@@H](OP(=O)(O)O)[C@H](OP(=O)(O)O)[C@@H](OP(=O)(O)O)[C@H]1OP(=O)(O)O` [InsP6], the Kd (AtIPK2α) was roughly 2 µM, the kinase activity (MpIPMK [1]) was “demonstrating that MpIPMK phosphorylates InsP6 in vitro” and the Kd (AtIPK2β [2]) was roughly 0.5 µM.

Work on `O=P(O)(O)O[C@@H]1[C@H](O)[C@H](O)[C@@H](OP(=O)(O)O)[C@H](OP(=O)(O)O)[C@H]1O` [Ins(1,4,5)P3] yielded a Kd (AtIPK2α) of roughly 7 µM and a Kd (AtIPK2β [2]) of roughly 6 µM.

B1: FAM-HSE (AtHSP18.1 promoter element) (dsDNA)
DNA 1: CTCGGTCGATCGAGAAGCTTCTGCATGATG
DNA 2: AAACCATCATGCAGAAGCTTCTCGATCGAC
B1: binds (AtHSFA1b [3]); no binding (MpIPMK [4]); no binding (AtIPK2β [5]).

B2: HSE∆ (dsDNA)
DNA 1: CTCGGTCGATCGATGCATGATG
DNA 2: AAACCATCATGCATCGATCGAC
B2: no binding (AtHSFA1b [6]).
